According to patent US10588910B2, “Pharmaceutical composition comprising epidithiodioxopiperazine compound or derivative thereof, or pharmaceutically acceptable salt thereof, for preventing or treating pulmonary hypertension” (priority 2016, dated 2020):
Several values for one entry are separate records, joined by “and”; a condition that tells them apart may be missing. Equal entries are not always repeated.

System: rat models in which pulmonary arterial hypertension is induced by monocrotaline (MCT)
Assay: Monocrotaline-induced pulmonary arterial hypertension rat model: heart mass, RV/(LV+septum) ratio, pulmonary arterial wall thickness (H&E)
Format: in vivo, Male SD rats
Conditions: for hypertrophy of the right ventricle and pulmonary artery intimal thickening: animals with pulmonary arterial hypertension induced by monocrotaline; for hypertrophy of the right ventricle and pulmonary artery intimal thickening / therapeutic effect on pulmonary arterial hypertension: summary statement; for Total mass (heart) / LV + Septum (mass), Average / RV (right ventricle mass), Average / RV/LV + Septum, Average / Total mass (heart), Average / LV + Septum (mass) / RV (right ventricle mass) / RV/LV + Septum: 3 weeks; for Total mass (heart) / LV + Septum (mass) / RV (right ventricle mass) / RV/LV + Septum: individual rats; for LV + Septum (mass), Average / RV (right ventricle mass), Average / RV/LV + Septum, Average / Total mass (heart), Average: group average
Experimental: Male SD rats weighing approximately 210 g were used as animal models. In order to induce pulmonary arterial hypertension, a single intraperitoneal injection of monocrotaline (MCT) at a dose of 60 mg/kg was carried out. Accordingly, the rat models in which pulmonary arterial hypertension is induced were maintained for 3 weeks while test drugs were administered or not administered, and then the rat models were sacrificed. Thereafter, the hearts were excised and analyzed.
Chaetocin (the compound of Formula 2), which is a representative epidithiodioxopiperazine compound, was administered as a test drug to the pulmonary arterial hypertension animal models prepared according to Preparation Example 1 above at each dose of 6 μg, 12 μg, and 30 μg every 3 days. Normal rats in which MCT is not administered were used as the control group; and rats in which pulmonary arterial hypertension is induced by administering only MCT were used as the MCT group. The control group and each experimental group consisted of 3 to 4 rats.
The hearts were excised as in Preparation Example 1, and the excised hearts were measured for their total mass. Thereafter, the right ventricle (RV) was separated and the masses of each of the right ventricle, left ventricle, and cardiac septum (LV+septum) were separately measured to calculate the ratio. The results of the measurement of each experimental animal, the normal rats (control group), the MCT group, and the experimental groups (chaetocin groups; MCT+(dose μg)) in which chaetocin is administered at each dose of 30 μg, 12 μg, and 6 μg are shown in order in Tables 1 to 5.
Further, the sizes of the excised entire hearts and separated right ventricles were visually observed (FIG. 1), and the thicknesses of the pulmonary arterial walls were measured by H&E staining (FIGS. 2 to 11). In addition, in order to visualize the difference in the heart and pulmonary artery according to the dose-dependent chaetocin administration after the pulmonary arterial hypertension induction in the pulmonary arterial hypertension model, the average values of the heart mass, the ratio of the right ventricle to the left ventricle, and the thickness of the pulmonary artery wall, which are calculated from the hearts excised from each animal model, are shown in FIGS. 12 to 14, respectively. […]

[1] = MCT rats, chaetocin 6 μg every 3 days
[2] = MCT rats, chaetocin 12 μg every 3 days
[3] = MCT rats, chaetocin 30 μg every 3 days

CN1C(=O)C2SSC1C(=O)N2C [5,7-Dimethyl-2,3-dithia-5,7-diazabicyclo[2.2.2]octane-6,8-dione]
hypertrophy of the right ventricle and pulmonary artery intimal thickening: reduced to a level similar to normal | therapeutic effect on pulmonary arterial hypertension: excellent therapeutic effect

CN1C(=O)C23CC4(C56CC78SSC(CO)(C(=O)N7C5Nc5ccccc56)N(C)C8=O)c5ccccc5NC4N2C(=O)C1(CO)SS3 (stereo not shown) [chaetocin]
Total mass (heart) (MCT 60 mg/kg i.p. rats, chaetocin 30 μg every 3 days): 1185 mg and 865 mg and 1135 mg and 1258 mg | LV + Septum (mass), Average [1]: 718.3 mg | RV (right ventricle mass), Average [1]: 190.0 mg | RV/LV + Septum, Average [1]: 0.26 | Total mass (heart), Average [1]: 908.3 mg | LV + Septum (mass) [1]: 732 mg and 681 mg and 742 mg | RV (right ventricle mass) [1]: 190 mg and 175 mg and 205 mg | RV/LV + Septum [1]: 0.26 (2×) and 0.28 | Total mass (heart) [1]: 922 mg and 856 mg and 947 mg | LV + Septum (mass), Average [2]: 935.7 mg | RV (right ventricle mass), Average [2]: 259.0 mg | RV/LV + Septum, Average [2]: 0.28 | Total mass (heart), Average [2]: 1194.7 mg | LV + Septum (mass) [2]: 913 mg and 968 mg and 926 mg | RV (right ventricle mass) [2]: 261 mg and 295 mg and 221 mg | RV/LV + Septum [2]: 0.29 and 0.30 and 0.24 | Total mass (heart) [2]: 1174 mg and 1263 mg and 1147 mg | LV + Septum (mass), Average [3]: 870.8 mg | RV (right ventricle mass), Average [3]: 240.0 mg | RV/LV + Septum, Average [3]: 0.3 | Total mass (heart), Average [3]: 1110.8 mg | LV + Septum (mass) [3]: 921 mg and 689 mg and 874 mg and 999 mg | RV (right ventricle mass) [3]: 264 mg and 176 mg and 261 mg and 259 mg | RV/LV + Septum [3]: 0.29 and 0.26 (2×) and 0.30 | hypertrophy of the right ventricle and pulmonary artery intimal thickening: reduced to a level similar to normal | therapeutic effect on pulmonary arterial hypertension: excellent therapeutic effect
